We go through 30 compounds from US20220169639A1 (priority 2018, published 2022).

As usually defined, the IC50 is the concentration that gives 50% inhibition.

This assay has as its system HBeAg (surrogate marker for cccDNA) in HepDES19 cells. The assay is described as follows: Engineered HepDES19 primary screen assay (HBeAg ELISA). The assay is classed as cell-based, HBV. The following applies: Hepatitis B virus, 120 h, HBeAg in culture supernatant, 5 days incubation, read-out: IC50 (HepDES19 primary screen assay, inhibition of extracellular HBeAg level). The source says:
The assay was employed to screen for cccDNA inhibitors. HepDES19 is a cccDNA-producing cell line. In this cell line, HBeAg in the cell culture supernatant as surrogate marker, as HBeAg production depends on cccDNA level and activity. HepDES19 is an engineered cell line which contains a 1.1 unit length HBV genome, and pgRNA transcription from the transgene is controlled by Tetracycline (Tet). In the absence of Tet, pgRNA transcription will be induced, but HBV e antigen (HBeAg) could not be produced from this pgRNA due to very short leader sequence before the HBeAg start codon and the start codon is disrupted. Only after cccDNA is formed, the missing leader sequence and start codon mutation would be restored from the 3′-terminal redundancy of pgRNA, and then HBeAg could be synthesized. Therefore, HBeAg could be used as a surrogate marker for cccDNA (Zhou, T. et al., Antiviral Res. (2006), 72(2), 116-124; Guo, H. et al., J. Virol. (2007), 81(22), 12472-12484).
HepDES19 cells were seeded at 2×10^6 cells per T150 flask and cultured with the culture medium (Dulbecco's Modified Eagle Medium: Nutrient Mixture F-12 [DMEM-F12, Gibco Cat. 11320-82], 10% Fetal Bovine Serum [FBS, Clontech Cat. 631101], 0.1 mM Non-Essential Amino Acids Solution [NEAA, Gibco Cat. 11140-050], 50 μg/mL Penicillin-Streptomycin [PS, Invitrogen Cat. 15140-163], 500 μg/mL Geneticin [G418, Invitrogen Cat. 10131-027]) containing 3 μg/mL Tet (Sigma, Cat. 87128) for 5 days. Cells were then seeded at 4×10^6 cells per T150 in the same culture medium as described above in the absence of Tet for 8 days. Cells were then harvested and frozen at density of 2×10^6 cells per mL. For compound testing, the frozen cells were thawed and seeded into 96-well plates at a density of 6×10^4 cells per well. At 24 hours after seeding, half log serial dilutions of compounds made with Dimethyl sulfoxide (DMSO, Sigma, Cat. D2650) were further diluted with the same culture medium as described above before they were added to the cells to reach desired final compound concentrations and 1% DMSO concentration. Plates were then incubated at 37° C. for another 5 days before measurement of HBeAg level and cell viability. Intracellular HBeAg level were measured with enzyme-linked immunosorbent assay (ELISA) kit (Shanghai Kehua Diagnostic Medical Products Co., Ltd). Cell viability was assessed using Cell Counting Kit-8 (DonJindo, Cat. CK04-20). IC50 values were derived from the dose-response curve using 4 parameter logistic curve fit method.
The compounds of the present invention were tested for their capacity to inhibit extracellular HBeAg level as described herein.
(In an ELISA, binding on a coated surface is turned into a signal by an enzyme label.)
As for `CS(=O)(=O)NC(=O)[C@H]1CCN(CCOc2cc(C(F)(F)F)ccc2-c2cc(=O)c3cccc(Cl)c3o2)C1` [Example 071, (3S)-1-[2-[2-(8-chloro-4-oxo-chromen-2-yl)-5-(trifluoromethyl)phenoxy]ethyl]-N-methylsulfonyl-pyrrolidine-3-carboxamide], the IC50 turned out to be 1.03 µM.

Consider `CN(CCCOc1cc(C(F)(F)F)ccc1-c1cc(=O)c2cccc(Cl)c2o1)CC(=O)O` [Example 134, 2-[3-[2-(8-chloro-4-oxo-chromen-2-yl)-5-(trifluoromethyl)phenoxy]propyl-methyl-amino]acetic acid], for which the IC50 is 8.17 µM.

For the compound `COc1ccc2oc(-c3ccccc3OC)cc(=O)c2c1` [Example F-2, 6-methoxy-2-(2-methoxyphenyl)chromen-4-one, reference compound], the IC50 was over 50 µM.

Turning to `CCOC(=O)C(=O)NCCOc1cc(OC)c(Br)cc1-c1cc(=O)c2cccc(Cl)c2o1` [Example 102], the IC50 was found to be 2.91 µM.

For the compound `CCNS(=O)(=O)N(C)CCOc1cc(C)ccc1-c1cc(=O)c2cccc(Cl)c2o1` [Example 136, 8-chloro-2-[2-[2-[ethylsulfamoyl(methyl)amino]ethoxy]-4-methyl-phenyl]-4-oxo-chromene], the IC50 came out at 0.58 µM.

`O=C(O)C1CC(=O)N(CCCOc2cc(Br)ccc2-c2cc(=O)c3cccc(Cl)c3o2)C1` (stereo not drawn) [Example 169, 1-[3-[5-bromo-2-(8-chloro-4-oxo-chromen-2-yl)phenoxy]propyl]-5-oxo-pyrrolidine-3-carboxylic acid]: the IC50 is 0.99 µM.

`O=C(O)CC1CCN(CCCOc2cc(C(F)(F)F)ccc2-c2cc(=O)c3cccc(Cl)c3o2)C1` (stereo not drawn) [Example 008, 2-[1-[3-[2-(8-chloro-4-oxo-chromen-2-yl)-5-(trifluoromethyl)phenoxy]propyl]pyrrolidin-3-yl]acetic acid]: the IC50 was determined as 0.17 µM.

As for `CS(=O)(=O)NC(=O)C1CN(CCOc2cc(C(F)(F)F)ccc2-c2cc(=O)c3cccc(Cl)c3o2)CCO1` (stereo not drawn) [Example 068, 4-[2-[2-(8-chloro-4-oxo-chromen-2-yl)-5-(trifluoromethyl)phenoxy]ethyl]-N-methylsulfonyl-morpholine-2-carboxamide], the IC50 worked out at 5.51 µM.

Regarding `O=C(NS(=O)(=O)C1CC1)C1CCCN1CCOc1cc(C(F)(F)F)ccc1-c1cc(=O)c2cccc(Cl)c2o1` (stereo not drawn) [Example 072, 1-[2-[2-(8-chloro-4-oxo-chromen-2-yl)-5-(trifluoromethyl)phenoxy]ethyl]-N-cyclopropylsulfonyl-pyrrolidine-2-carboxamide], the IC50 came to 2.89 µM.

As to `COc1cc(OCCOCCN2CC[C@@H](C(=O)O)C2)c(-c2cc(=O)c3cccc(Cl)c3o2)cc1C` [Example 050, (3R)-1-[2-[2-[2-(8-chloro-4-oxo-chromen-2-yl)-5-methoxy-4-methyl-phenoxy]ethoxy]ethyl]pyrrolidine-3-carboxylic acid], the IC50 is 6.93 µM.

As for `O=C(O)CN(CCCOc1cc(C(F)(F)F)ccc1-c1cc(=O)c2cccc(Cl)c2o1)CC(=O)O` [Example 140], the IC50 turned out to be 0.19 µM.

Regarding `Cc1ccc(-c2cc(=O)c3cccc(Cl)c3o2)c(OCCNC2CC(C(=O)O)C2)c1` (stereo not drawn) [Example 053, 3-[2-[2-(8-chloro-4-oxo-chromen-2-yl)-5-methyl-phenoxy]ethylamino]cyclobutanecarboxylic acid], the IC50 worked out at 0.1 µM.

Turning to `Cc1cc(-c2cc(=O)c3cccc(Cl)c3o2)c(OCCN2CC(C(=O)O)C2)cc1Cl` [Example 061, 1-[2-[5-chloro-2-(8-chloro-4-oxo-chromen-2-yl)-4-methyl-phenoxy]ethyl]azetidine-3-carboxylic acid], the IC50 is 5.71 µM.

Turning to `Cc1ccc(-c2cc(=O)c3cccc(Cl)c3o2)c(OCCN(C(=O)C(=O)O)C2CC2)c1` [Example 135, 2-[2-[2-(8-chloro-4-oxo-chromen-2-yl)-5-methyl-phenoxy]ethyl-cyclopropyl-amino]-2-oxo-acetic acid], the IC50 amounted to 0.21 µM.

On to `Cc1ccc(-c2cc(=O)c3cccc(Cl)c3o2)c(OCCNS(N)(=O)=O)c1` [Example 161, 8-chloro-2-[4-methyl-2-[2-(sulfamoylamino)ethoxy]phenyl]-4-oxo-chromene], for which the IC50 stood at 4.74 µM.

Consider `O=C(O)C1CC(NCCOc2cc(C(F)(F)F)ccc2-c2cc(=O)c3cccc(Cl)c3o2)C1` (stereo not drawn) [Example 038, 3-[2-[2-(8-chloro-4-oxo-chromen-2-yl)-5-(trifluoromethyl)phenoxy]ethylamino]cyclobutanecarboxylic acid], for which the IC50 turned out to be 7.24 µM.

On to `CS(=O)(=O)CCNCCCOc1cc(C(F)(F)F)ccc1-c1cc(=O)c2cccc(Cl)c2o1` [Example 079, 8-chloro-2-[2-[3-(2-methylsulfonylethylamino)propoxy]-4-(trifluoromethyl)phenyl]chromen-4-one], for which the IC50 came to 0.78 µM.

Take `Cc1ccc(S(=O)(=O)NC(=O)NCCOc2cc(C(F)(F)F)ccc2-c2cc(=O)c3cccc(Cl)c3o2)cc1` [Example 158, 1-[2-[2-(8-chloro-4-oxo-chromen-2-yl)-5-(trifluoromethyl)phenoxy]ethyl]-3-(p-tolylsulfonyl)urea]: the IC50 was 8.35 µM.

As for `O=C(O)[C@H]1CCN(CCOc2cc(C(F)(F)F)ccc2-c2cc(=O)c3cccc(Cl)c3o2)C1` [Example 034, (3S)-1-[2-[2-(8-chloro-4-oxo-chromen-2-yl)-5-(trifluoromethyl)phenoxy]ethyl]pyrrolidine-3-carboxylic acid], the IC50 stood at 1.12 µM.

Take `O=C(O)[C@@H]1CCCN1CCCOc1cc(Br)ccc1-c1cc(=O)c2cccc(Cl)c2o1` [Example 004, (2S)-1-[3-[5-bromo-2-(8-chloro-4-oxo-chromen-2-yl)phenoxy]propyl]pyrrolidine-2-carboxylic acid]: the IC50 came out at 2.02 µM.

In the case of `O=c1cc(-c2ccc(C(F)(F)F)cc2OCC(O)CNS(=O)(=O)C2CC2)oc2c(Cl)cccc12` (stereo not drawn) [Example 086, N-[3-[2-(8-chloro-4-oxo-chromen-2-yl)-5-(trifluoromethyl)phenoxy]-2-hydroxy-propyl]cyclopropanesulfonamide], the IC50 was determined as 3.22 µM.

Take `O=C(O)C(=O)N1CCN(CCOc2cc(C(F)(F)F)ccc2-c2cc(=O)c3cccc(Cl)c3o2)C1=O` [Example 162, 2-[3-[2-[2-(8-chloro-4-oxo-chromen-2-yl)-5-(trifluoromethyl)phenoxy]ethyl]-2-oxo-imidazolidin-1-yl]-2-oxo-acetic acid]: the IC50 was 0.08 µM.

For `O=C(O)c1cccc(CN2CCC(Oc3cc(Br)ccc3-c3cc(=O)c4cccc(Cl)c4o3)CC2)c1` [Example 128], the IC50 is 0.27 µM.

As for `O=C(NCCCOc1cc(C(F)(F)F)ccc1-c1cc(=O)c2cccc(Cl)c2o1)C(=O)NS(=O)(=O)C1CC1` [Example 149, N-[3-[2-(8-chloro-4-oxo-chromen-2-yl)-5-(trifluoromethyl)phenoxy]propyl]-N′-cyclopropylsulfonyl-oxamide], the IC50 turned out to be 8.79 µM.

On to `Cc1ccc(-c2cc(=O)c3cccc(Cl)c3o2)c(OCCNC(=O)NCC(=O)O)c1` [Example 154], for which the IC50 was 1.43 µM.

For `CC(NCCOc1cc(C(F)(F)F)ccc1-c1cc(=O)c2cccc(Cl)c2o1)C(=O)O` (stereo not drawn) [Example 057, 2-[2-[2-(8-chloro-4-oxo-chromen-2-yl)-5-(trifluoromethyl)phenoxy]ethylamino]propanoic acid], the IC50 was determined as 1.5 µM.

As for `CCOC(=O)C(=O)NCCOc1cc(C)ccc1-c1cc(=O)c2cccc(Cl)c2o1` [Example 109, ethyl 2-[2-[2-(8-chloro-4-oxo-chromen-2-yl)-5-methyl-phenoxy]ethylamino]-2-oxo-acetate], the IC50 is 4.11 µM.

As for `C[C@@H]1NC(=O)N(CCOc2cc(C(F)(F)F)ccc2-c2cc(=O)c3cccc(Cl)c3o2)C1=O` [Example 155], the IC50 came to 5.11 µM.

As to `NC(=O)C1CSCCN1CCOc1cc(Br)ccc1-c1cc(=O)c2cccc(Cl)c2o1` (stereo not drawn) [Example 085, 4-[2-[5-bromo-2-(8-chloro-4-oxo-chromen-2-yl)phenoxy]ethyl]thiomorpholine-3-carboxamide], the IC50 amounted to 1.08 µM.

Regarding `O=C(O)[C@H]1CCN(CC(O)COc2cc(C(F)(F)F)ccc2-c2cc(=O)c3cccc(Cl)c3o2)C1` (stereo partly drawn) [Example 163, (3S)-1-[3-[2-(8-chloro-4-oxo-chromen-2-yl)-5-(trifluoromethyl)phenoxy]-2-hydroxy-propyl]pyrrolidine-3-carboxylic acid], the half-inhibitory concentration (IC50) stood at 2.76 µM.
